In publication PMC3742014 (Journal of medicinal chemistry, 2010):

Columns and labels:
[1] = target: T1, human MTAP (Homo sapiens, UniProt Q13126); type: biochemical; conditions: for Km/Ki ratio for human MTAP: Km of MTA over Ki of the inhibitor
T1 sequence (Q13126 1-283): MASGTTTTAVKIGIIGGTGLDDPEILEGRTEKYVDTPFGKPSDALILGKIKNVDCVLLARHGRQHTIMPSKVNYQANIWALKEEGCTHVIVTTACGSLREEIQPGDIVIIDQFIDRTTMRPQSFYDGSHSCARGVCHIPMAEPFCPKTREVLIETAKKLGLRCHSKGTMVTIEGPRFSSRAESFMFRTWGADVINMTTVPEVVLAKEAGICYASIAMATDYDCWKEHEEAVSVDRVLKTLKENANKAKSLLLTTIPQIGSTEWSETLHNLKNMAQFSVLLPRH

[2] = target: E. coli MTAN (Escherichia coli, UniProt P0AF12); experiment: Inhibition of E. coli MTAN, xanthine oxidase-coupled enzyme assay; type: biochemical; conditions: Km of MTA over Ki of the inhibitor
Sequence of E. coli MTAN (P0AF12 whole entry): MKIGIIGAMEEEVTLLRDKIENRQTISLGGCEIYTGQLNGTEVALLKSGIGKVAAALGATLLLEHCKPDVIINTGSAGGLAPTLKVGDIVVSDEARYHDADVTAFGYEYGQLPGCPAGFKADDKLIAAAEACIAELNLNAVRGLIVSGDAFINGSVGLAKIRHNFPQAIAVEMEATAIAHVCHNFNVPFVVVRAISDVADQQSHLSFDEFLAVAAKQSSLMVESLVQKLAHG

Structure (SMILES)	Better competitor for the catalytic site of human MTAP than for E. coli MTAN, factor ([1]; from the Km/Ki ratios)	Km/Ki ratio for E. coli MTAN [2]	Km/Ki ratio for human MTAP [1]
CC[C@H]1CN(Cc2c[nH]c3c(N)ncnc23)C[C@@H]1O (racemic) [(±)-28, (±)-trans-1-[(9-Deaza-adenin-9-yl)methyl]-4-ethyl-3-hydroxypyrrolidine]	6	512	–
C=C[C@H]1CN(Cc2c[nH]c3c(N)ncnc23)C[C@@H]1O (racemic) [(±)-40, (±)-trans-1-[(9-Deaza-adenin-9-yl)methyl]-3-hydroxy-4-vinylpyrrolidine]	–	662	1649
C=CC[C@H]1CN(Cc2c[nH]c3c(N)ncnc23)C[C@@H]1O (racemic) [(±)-41, (±)-trans-4-Allyl-1-[(9-deaza-adenin-9-yl)methyl]-3-hydroxypyrrolidine]	–	1228	1759
Nc1ncnc2c(CN3C[C@H](CCCSCc4ccccc4)[C@@H](O)C3)c[nH]c12 (racemic) [(±)-57, (±)-trans-4-[3-(Benzylthio)propyl]-1-[(9-deaza-adenin-9-yl)methyl]-3-hydroxypyrrolidine]	–	7963	74
